# Residues, ends and D or L forms follow the SMILES beside them.
# Tests used:
# [1] = molecular target: T1, HLA-A*0201 (Homo sapiens, UniProt P04439, D140Y/D185E/D98H/E176V/E277Q/G131W/G231S/I119V/I121R/I166T/I218V/L300P/L318F/N151K/N90K/P208A/P217A/Q86G/Q94H/R138H/R169H/T345S); assay: iTOPIA EDS MHC peptide binding assay; conditions: HLA-A*0201 monomer, relative to positive control peptide, 21° C. for 18 h
# Description: MHC peptide binding assay using iTOPIA EDS
# Microtiter 96 well plates containing HLA class I MHC monomer loaded with the human β2-microglobulin and a “placeholder” peptide were used to evaluate peptide binding, affinity, and off-rate.
# The 502 nectin4 nonapeptides were first evaluated for their ability to bind to each MHC molecule in the peptide binding assay. In this assay, the placeholder peptides were stripped from the MHC class I monomer complexes coated on plastic, which leaves the MHC class I heavy chain available as a binding partner for candidate peptides in the presence of human β2-microglobulin.
# Peptide binding was performed at 21° C. for 18 h. Revelation was done using an anti HLA-ABC-FITC mAb that binds to refolded MHC complex conformation. The relative fluorescent intensity was read using a fluorimeter (Molecular Devices, SpectraMax Gemini, Sunnyvale, Calif., USA).
# Peptides with a binding>30% of the positive control peptide were selected as “binder” and subsequently analyzed for affinity (ED50) and off-rate (T1/2).
# [2] = molecular target: T1, HLA-A*0201; assay: biochemical; assay type: binding; conditions: peptide concentration giving 50% of optimal binding; 10^−4 to 10^−9 M, 21° C. for 18 h; read-out: Affinity (ED50)
# [3] = molecular target: T1, HLA-A*0201; assay: iScore calculation (iTOPIA system software); conditions: multiparametric score of binding, off-rate and affinity
# [4] = molecular target: T2, HLA A*0201 on CEM.T2 cell line (Homo sapiens, UniProt P04439, D140Y/D185E/D98H/E176V/E277Q/G131W/G231S/I119V/I121R/I166T/I218V/L300P/L318F/N151K/N90K/P208A/P217A/Q86G/Q94H/R138H/R169H/T345S); assay: Cellular binding assay, HLA stabilization on CEM.T2 cells; assay type: cell-based; conditions: 100 μM peptide, 37° C. for 4 h, FACS anti HLA-A2; relative to HBV positive control peptide
# T2 construct: This cell line expresses HLA A*0201 but is deficient for TAP transporter; endogenous in cells; host or cells: CEM.T2 (T2) cell line
# Protocol: The CEM.T2 cell line (T2) is defective in the processing of proteins for presentation by MHC class 1 molecules. This cell line expresses HLA A*0201 but is deficient for TAP transporter. T2 is classically used to assess the Peptide/HLA-A*0201 Complex Stability[H. W. Nijman et al., 1993]
# For HLA-A2*0201 stabilization, T2 cells (2×10^5/well) were incubated in serum-free RPMI (Gibco®-France) with 100 μM of selected peptide, at 37° C. for 4 h. Cells were washed two times with PBS supplemented with 1% BSA and stained with fluorescein isothiocyanate-conjugated anti HLA-A2 (Clone BB7.2) (BD Bioscience Pharmingen-France-) at 4° C. for 45 min. After 3 washes, cells were fixed in PBS supplemented with 2% paraformaldehyde and analyzed by FACS (FACScan, BD Bioscience). The percentage of peptide binding was calculated as follows: % Binding={(MFI peptide sample−MFI Neg control)/(MFI Pos control−MFI Neg control)}×100
# Negative control was done without peptide.
# [5] = molecular target: T2, HLA A*0201 on CEM.T2 cell line; assay: Cellular dissociation assay on CEM.T2 cells; assay type: cell-based; conditions: after Brefeldin A 1 h and 3 h in serum-free RPMI at 37° C. (4 h)
# Protocol: Cellular Dissociation Assay
# After HLA-A2*0201 stabilization with peptides at 37° C. for 4 h, T2 cells were incubated for 1 h, in serum-free RPMI containing Brefeldin A (10 μg/ml), an inhibitor of the transport of secretory and lysosomal proteins [G. J. Strous et al., 1993]. After 3 washes, T2 cells were incubated for 3 h in serum-free RPMI at 37° C. Binding was then measured by FACS and after 4 h incubation. Percentage of Residual Binding (% RB) was calculated as follows: […]
Compound,% Binding [1],EC50 [2],iScore [3],CEM.T2 % Binding [4],CEM.T2 % Residual Binding [5]
CC(C)C[C@H](NC(=O)[C@H](C)NC(=O)[C@H](C)N)C(=O)N[C@@H](CC(C)C)C(=O)N[C@@H](Cc1ccccc1)C(=O)N[C@@H](CS)C(=O)N[C@@H](CC(C)C)C(=O)N[C@@H](CC(C)C)C(=O)N[C@H](C(=O)O)C(C)C [Peptide 357] (H-AALLFCLLV-OH; N-terminus and C-terminus assumed),56%,100 nM,0.619,15%,18%
CC(C)C[C@H](NC(=O)[C@H](CS)NC(=O)[C@H](Cc1ccccc1)NC(=O)[C@H](CC(C)C)NC(=O)[C@@H](N)CC(C)C)C(=O)N[C@@H](CC(C)C)C(=O)N[C@H](C(=O)N[C@H](C(=O)N[C@H](C(=O)O)C(C)C)C(C)C)C(C)C [Peptide 359] (H-LLFCLLVVV-OH; N-terminus and C-terminus assumed),67%,500 nM,0.674,7%,23%
CC(C)[C@H](NC(=O)CNC(=O)[C@@H](NC(=O)[C@@H](NC(=O)[C@@H](NC(=O)[C@@H](NC(=O)[C@H](CO)NC(=O)[C@H](C)NC(=O)[C@@H](N)CO)C(C)C)C(C)C)C(C)C)C(C)C)C(=O)O [Peptide 347] (H-SASVVVVGV-OH; N-terminus and C-terminus assumed),64%,200 nM,0.708,40%,0%
CC(C)C[C@H](NC(=O)[C@H](CC(C)C)NC(=O)[C@H](CC(C)C)NC(=O)[C@@H](N)CC(C)C)C(=O)N[C@@H](C)C(=O)N[C@@H](CO)C(=O)N[C@@H](Cc1ccccc1)C(=O)N[C@H](C(=O)NCC(=O)O)[C@@H](C)O [Peptide 19] (H-LLLLASFTG-OH; N-terminus and C-terminus assumed),75%,60 nM,0.659,17%,0%
CC[C@H](C)[C@H](NC(=O)[C@@H](N)Cc1c[nH]cn1)C(=O)N[C@@H](CC(C)C)C(=O)N[C@@H](Cc1c[nH]cn1)C(=O)N[C@H](C(=O)N[C@@H](CO)C(=O)N[C@@H](Cc1ccccc1)C(=O)N[C@@H](CC(C)C)C(=O)N[C@@H](C)C(=O)O)C(C)C [Peptide 238] (H-HILHVSFLA-OH; N-terminus and C-terminus assumed),87%,60 nM,1.426,37%,66%
CC(C)C[C@H](NC(=O)[C@@H](N)Cc1ccccc1)C(=O)N[C@@H](C)C(=O)N[C@@H](CCC(=O)O)C(=O)N[C@@H](C)C(=O)N[C@@H](CO)C(=O)N[C@H](C(=O)N[C@@H](CCCNC(=N)N)C(=O)NCC(=O)O)C(C)C [Peptide 244] (H-FLAEASVRG-OH; N-terminus and C-terminus assumed),78%,700 nM,0.533,12%,0%
CSCC[C@H](NC(=O)[C@@H](N)CO)C(=O)N[C@@H](CC(N)=O)C(=O)NCC(=O)N[C@@H](CCC(N)=O)C(=O)N1CCC[C@H]1C(=O)N[C@@H](CC(C)C)C(=O)N[C@H](C(=O)N[C@@H](CS)C(=O)O)[C@@H](C)O [Peptide 215] (H-SMNGQPLTC-OH; N-terminus and C-terminus assumed),81%,700 nM,0.689,21%,0%
CC[C@H](C)[C@H](NC(=O)[C@@H](NC(=O)CN)C(C)C)C(=O)N[C@@H](C)C(=O)N[C@@H](C)C(=O)N[C@@H](CC(C)C)C(=O)N[C@@H](CC(C)C)C(=O)N[C@@H](Cc1ccccc1)C(=O)N[C@@H](CS)C(=O)O [Peptide 354] (H-GVIAALLFC-OH; N-terminus and C-terminus assumed),61%,90 nM,0.845,10%,0%
CC(C)C[C@H](NC(=O)[C@H](C)N)C(=O)N[C@@H](CC(C)C)C(=O)N[C@@H](Cc1ccccc1)C(=O)N[C@@H](CS)C(=O)N[C@@H](CC(C)C)C(=O)N[C@@H](CC(C)C)C(=O)N[C@H](C(=O)N[C@H](C(=O)O)C(C)C)C(C)C [Peptide 358] (H-ALLFCLLVV-OH; N-terminus and C-terminus assumed),53%,200 nM,0.71,26%,26%

# — US9266922B2, “Antigen peptide and uses thereof” (priority 2011, dated 2016)
